Measurements taken from patent US20220152064A1, “BENZOAZEPINE COMPOUND-CONTAINING PHARMACEUTICAL COMPOSITION” (OTSUKA PHARMACEUTICAL CO., LTD., priority 2019, published 2022).

Experiment: Side effects on the skin or subcutaneous tissue in test of intravenous administration of compound A composition to healthy subjects
Format: in vivo, human
Details: for Erythema (number of subjects) / Hyperhidrosis (number of subjects) / Number of subjects who showed at least one symptom / Pruritus (number of subjects): N=6 healthy adult males, within 24 hours after initiation of administration
Procedure: Water for injection (5 mL) was added to each of the obtained 0 mg formulation and 25 mg formulation to dissolve the freeze-dried compositions (freeze-dried cakes), thus obtaining aqueous solutions for injection. When the 25 mg formulation was dissolved in 5 mL of water for injection, 5.21 mL of the aqueous solution composition (25 mg formulation (aqueous solution for injection)) shown in Table 1 comprising 5 mg/mL of the active ingredient (compound A) was reconstituted. Further, according to the compositions shown in Table 3 below, administration solutions were prepared by mixing the 25 mg formulation (aqueous solution for injection), the 0 mg formulation (aqueous solution for injection), and a physiological saline (physiological saline solution).
Each of the obtained administration solutions was intravenously administered with a syringe pump over the administration times shown in Table 3. The number of subjects to which each solution was administered was 6 healthy adult males (aged 20 to 40 years old) (N=6).
The number of subjects who developed, within 24 hours after the initiation of administration, side effects that could appear on the skin or subcutaneous tissue (erythema, hyperhidrosis, or pruritus) was recorded.

[1] = administration solution 1, 15 mg compound A i.v. over 2 hours
[2] = administration solution 2, 7.5 mg compound A i.v. over 2 hours
[3] = administration solution 3, 15 mg compound A i.v. over 5 minutes
[4] = administration solution 4, 7.5 mg compound A i.v. over 5 minutes
[5] = administration solution 5, 15 mg compound A i.v. over 1 minute
[6] = administration solution 6, 7.5 mg compound A i.v. over 1 minute

Cc1ccccc1C(=O)Nc1ccc(C(=O)N2CCCC(OP(=O)([O-])[O-])c3cc(Cl)ccc32)c(C)c1.[Na+].[Na+] (centres unmarked) [compound A]
erythema, hyperhidrosis, or pruritus (7.5 mg or 15 mg of compound A intravenously administered over a period of 1 minute or 5 minutes (administration solutions 3 to 6)): frequently observed | side effects that could appear on the skin or subcutaneous tissue, such as erythema, hyperhidrosis, or pruritus (7.5 mg or 15 mg of compound A slowly administered over a period of 2 hours (administration solutions 1 and 2)): no side effects | Erythema (number of subjects) [1]: 0 human | Hyperhidrosis (number of subjects) [1]: 0 human | Number of subjects who showed at least one symptom [1]: 0 human | Pruritus (number of subjects) [1]: 0 human | Erythema (number of subjects) [2]: 0 human | Hyperhidrosis (number of subjects) [2]: 0 human | Number of subjects who showed at least one symptom [2]: 0 human | Pruritus (number of subjects) [2]: 0 human | Erythema (number of subjects) [3]: 4 human | Hyperhidrosis (number of subjects) [3]: 2 human | Number of subjects who showed at least one symptom [3]: 5 human | Pruritus (number of subjects) [3]: 4 human | Erythema (number of subjects) [4]: 3 human | Hyperhidrosis (number of subjects) [4]: 2 human | Number of subjects who showed at least one symptom [4]: 4 human | Pruritus (number of subjects) [4]: 3 human | Erythema (number of subjects) [5]: 5 human | Hyperhidrosis (number of subjects) [5]: 2 human | Number of subjects who showed at least one symptom [5]: 5 human | Pruritus (number of subjects) [5]: 4 human | Erythema (number of subjects) [6]: 5 human | Hyperhidrosis (number of subjects) [6]: 0 human | Number of subjects who showed at least one symptom [6]: 5 human | Pruritus (number of subjects) [6]: 4 human
